Measured values published in patent publication US4311700A, “Pyrimidobenzodiazepinones, their use and medicaments containing them” (priority 1979, dated 1982).

Assays:
Shay rats = test: Antiulcerogenic action (protective action on the stomach) in Shay rats, pylorus ligature plus acetylsalicylic acid; assay type: in vivo, rat; details: for TQ LD50/ED50 (therapeutic quotient): LD50 i.v. mice / ED50 p.o. rats; for ED50: Rattus norvegicus, po, p.o. 1 hour before pylorus ligature, dose reducing ulcer index by 50% vs control, read-out: Protective action on the stomach ED50 administered perorally to rats
Procedure: The effect of the compounds according to the invention on the formation, in rats, of gastric ulcers provoked by a pylorus ligature and 100 mg/kg of acetylsalicyclic acid, (administered orally) is shown in table II.
ED50 = the dose which reduces the ulcer index for the group treated
by 50% compared with the control group
The anti-ulcerogenic action is tested by a method using the so-caled Shay rats:
(§1) Ulcers are provoked in rats which have been starved for 24 hours (female rats, 180 to 200 g, 4 animals in a cage with a high grille) by means of a pylorus ligature (under anaesthesia with diethyl ether) and oral administration of 100 mg/10 ml/kg of acetylsalicyclic acid. The substances to be tested are administered orally (10 ml/kg) 1 hour before the pylorus ligature. The closure of the wound is effected by means of Michel's clips. The animals are killed 4 hours afterwards under ether anaesthesia by dislocating the atlas, and the stomach is cut out. The stomach is opened longitudinally and is fixed on a cork slab, the quantity of gastric juice secreted (volume) and the hydrochloric acid content having been determined beforehand; the number and size (= diameter) of ulcers present are determined by means of a stereomicroscope at a 10-fold magnification. The product of the degree of severity (in accordance with the following rating scale) and the number of the ulcers is used as an individual ulcer index.
ulcer diameter 0.1-1.4 mm
The reduction in the average ulcer index in each group treated compared with that of the control group (=100%) is used as a measure of the anti-ulcerogenic effect. The ED50 indicates the dose which reduces the average ulcer index by 50%.

stomach secretion = test: Inhibition of stomach secretion (volume and hydrochloric acid) in rats; assay type: in vivo, rat; details: 4 hours after administration of the antiulcerogenic ED50
Procedure: *% inhibition = inhibition (in %) of stomach secretion 4 hours after
administration of the antiulcerogenic ED50
as §1

[1] = Determination of toxicity, intravenous, mice; details: mouse, in vivo, i.v., female NMRI mice, 7 days observation, read-out: Toxicity LD50 administered intravenously to mice
Procedure: LD50 = the dose at which 50% of the animals die
The toxicity investigations are carried out on female NMRI mice (body weight 22 to 26 g). The animals (5 animals per dose) receive feed and water ad lib. Various doses of the substances are administered intravenously (duration of injection 1 minute). The observation period is 7 days. The LD50 (the dose at which 50% of the animals die) is determined by means of a linear regression.

Structure (SMILES)	TQ LD50/ED50 (therapeutic quotient) (Shay rats)	ED50 (Shay rats)	anti-ulcerogenic action at high dose (Shay rats; even at 300 mg/kg, rats)	dose/action curve (dose dependence of the action) (Shay rats; rats, p.o.)	% inhibition of stomach secretion in rats, hydrochloric acid (stomach secretion)	% inhibition of stomach secretion in rats, volume (stomach secretion)	LD50 at 168 h [1]	inhibitory effect (anti-ulcerogenic action) (Shay rats; 30 mg/kg, p.o., rats)
CC1(C)[C@@H](OC(=O)CCC(=O)O)CC[C@]2(C)[C@H]3C(=O)C=C4[C@@H]5C[C@@](C)(C(=O)O)CC[C@]5(C)CC[C@@]4(C)[C@]3(C)CC[C@@H]12 [Compound 1, Carbenoxolone, reference compound]	~ 4.1	~70 mg/kg	not possible to achieve any substantial increase in the anti-ulcerogenic action	the dose/action curve then flattens out very considerably	4%	7%	290 mg/kg	
CN1C(=O)c2cnc(-c3ccccc3)nc2N(C(=O)CN2CCCCC2)c2ccccc21 [Compound 4, 6-Methyl-2-phenyl-11-piperidinoacetyl-5,6-dihydropyrimido[4,5-b][1,5]benzodiazepin-5-one]	~ 20	~8 mg/kg			22%	32%	160 mg/kg	
CN1CCN(CC(=O)N2c3ccccc3N(C)C(=O)c3cnc(-c4ccccc4)nc32)CC1 [Compound 3, 6-Methyl-11-[(4-methyl-1-piperazinyl)acetyl]-2-phenyl-5,6-dihydropyrimido[4,5-b][1,5]benzodiazepin-5-one]	10.5	9 mg/kg				7%	95 mg/kg	
CN1CCN(CC(=O)N2c3ccccc3NC(=O)c3cncnc32)CC1 [Compound 2, 11-[(4-Methyl-1-piperazinyl)acetyl]-5,6-dihydropyrimido[4,5-b][1,5]benzodiazepin-5-one]	15	12 mg/kg			5%	10%	180 mg/kg	
CN(C)CCN(C)CC(=O)N1c2ccccc2N(C)C(=O)c2cnc(-c3ccccc3)nc21 [Compound 5, 11-[N-(2-dimethylaminoethyl)-N-methylamino]acetyl-6-methyl-2-phenyl-5,6-dihydropyrimido[4,5-b][1,5]benzodiazepin-5-one]		< 10 mg/kg						up to 100%
